Test results from ChEMBL document CHEMBL1795286, “A concise synthesis and antimicrobial activities of 3-polyamino-23,24-bisnorcholanes as steroid-polyamine conjugates” (2011).

Experiments:
[1] = tested on: Acinetobacter calcoaceticus; assay: Antimicrobial activity against Acinetobacter calcoaceticus ATCC 15473 after 18 hrs by twofold agar dilution method; format: functional; conditions: ATCC 15473, 18 h
Moraxella catarrhalis [2] = assay: Antimicrobial activity against Moraxella catarrhalis 25240 after 18 hrs by twofold agar dilution method; format: functional; conditions: Moraxella catarrhalis, 25240, 18 h
Moraxella catarrhalis [3] = assay: Antimicrobial activity against Moraxella catarrhalis C2431 after 18 hrs by twofold agar dilution method; format: functional; conditions: C2431, 18 h
Bacillus cereus = assay: Antimicrobial activity against Bacillus cereus ATCC 27348 after 18 hrs by twofold agar dilution method; format: functional; conditions: ATCC 27348, 18 h
Klebsiella aerogenes = assay: Antimicrobial activity against Klebsiella aerogenes harboring beta-lactamase SHV-1 1976E mutant after 18 hrs by twofold agar dilution method; format: functional
Escherichia coli [4] = assay: Antimicrobial activity against Escherichia coli 3190Y after 18 hrs by twofold agar dilution method; format: functional
Citrobacter freundii = assay: Antimicrobial activity against Citrobacter freundii 8090 after 18 hrs by twofold agar dilution method; format: functional; conditions: Citrobacter freundii, 8090, 18 h
Pseudomonas aeruginosa = assay: Antimicrobial activity against Pseudomonas aeruginosa 6065Y after 18 hrs by twofold agar dilution method; format: functional
Staphylococcus aureus [5] = assay: Antimicrobial activity against Staphylococcus aureus giorgio after 18 hrs by twofold agar dilution method; format: functional
Bacillus subtilis = assay: Antimicrobial activity against Bacillus subtilis ATCC 6633 after 18 hrs by twofold agar dilution method; format: functional; conditions: ATCC 6633, 18 h
Staphylococcus aureus [6] = assay: Antimicrobial activity against Staphylococcus aureus 241 after 18 hrs by twofold agar dilution method; format: functional; conditions: Staphylococcus aureus, 241, 18 h; read-out: MIC
Micrococcus luteus = assay: Antimicrobial activity against Micrococcus luteus ATCC 9341 after 18 hrs by twofold agar dilution method; format: functional; conditions: ATCC 9341, 18 h, read-out: MIC
Enterobacter cloacae [7] = assay: Antimicrobial activity against Enterobacter cloacae ATCC 27508 after 18 hrs by twofold agar dilution method; format: functional; conditions: ATCC 27508, 18 h
Morganella morganii = assay: Antimicrobial activity against Morganella morganii 1375E after 18 hrs by twofold agar dilution method; format: functional
Enterobacter cloacae [8] = assay: Antimicrobial activity against Enterobacter cloacae P99 after 18 hrs by twofold agar dilution method; format: functional; conditions: P99, 18 h
Escherichia coli [9] = assay: Antimicrobial activity against Escherichia coli ATCC 25922 after 18 hrs by twofold agar dilution method; format: functional; conditions: ATCC 25922, 18 h
Klebsiella pneumoniae = assay: Antimicrobial activity against Klebsiella pneumoniae 2011E after 18 hrs by twofold agar dilution method; format: functional
Bacillus licheniformis = assay: Antimicrobial activity against Bacillus licheniformis EMR after 18 hrs by twofold agar dilution method; format: functional
[10] = tested on: Staphylococcus epidermidis; assay: Antimicrobial activity against Staphylococcus epidermidis 887E after 18 hrs by twofold agar dilution method; format: functional; conditions: read-out: MIC
Salmonella typhimurium [11] = assay: Antimicrobial activity against Salmonella Typhimurium ATCC 14028 after 18 hrs by two-fold agar dilution method; format: functional, Salmonella enterica subsp. enterica serovar Typhimurium; conditions: Salmonella enterica, ATCC 14028, 18 h
Enterococcus faecalis = assay: Antimicrobial activity against Enterococcus faecalis ATCC 29212 after 18 hrs by twofold agar dilution method; format: functional; conditions: ATCC 29212, 18 h
Escherichia coli [12] = assay: Antimicrobial activity against Escherichia coli 851E after 18 hrs by twofold agar dilution method; format: functional
Salmonella typhimurium [13] = assay: Antimicrobial activity against Salmonella typhimurium ATCC 13311 after 18 hrs by twofold agar dilution method; format: functional, Salmonella enterica subsp. enterica serovar Typhimurium; conditions: Salmonella enterica, ATCC 13311, 18 h
Staphylococcus aureus [14] = assay: Antimicrobial activity against Staphylococcus aureus 77 after 18 hrs by twofold agar dilution method; format: functional; conditions: Staphylococcus aureus, 77, 18 h
Escherichia coli [15] = assay: Antimicrobial activity against Escherichia coli ATCC 10536 after 18 hrs by twofold agar dilution method; format: functional; conditions: ATCC 10536, 18 h
Citrobacter koseri = assay: Antimicrobial activity against Citrobacter diversus 2046 after 18 hrs by twofold agar dilution method; format: functional; conditions: Citrobacter koseri, 2046, 18 h
Serratia marcescens [16] = assay: Antimicrobial activity against Serratia marcescens ATCC 27117 after 18 hrs by twofold agar dilution method; format: functional; conditions: ATCC 27117, 18 h
Serratia marcescens [17] = assay: Antimicrobial activity against Serratia marcescens 1826E after 18 hrs by twofold agar dilution method; format: functional
Staphylococcus aureus [18] = assay: Antimicrobial activity against Staphylococcus aureus ATCC 6538P after 18 hrs by twofold agar dilution method; format: functional
Proteus vulgaris = assay: Antimicrobial activity against Proteus vulgaris 6059 after 18 hrs by twofold agar dilution method; format: functional; conditions: Proteus vulgaris, 6059, 18 h
Staphylococcus aureus [19] = assay: Antimicrobial activity against Staphylococcus aureus ATCC 25923 after 18 hrs by twofold agar dilution method; format: functional; conditions: ATCC 25923, 18 h, read-out: MIC

| SMILES | MIC [1] | MIC (Klebsiella aerogenes) | MIC (Citrobacter freundii) | MIC (Pseudomonas aeruginosa) | MIC (Staphylococcus aureus [5]) | MIC (Bacillus subtilis) | MIC (Staphylococcus aureus [6]) | MIC (Micrococcus luteus) | MIC (Enterobacter cloacae [7]) | MIC (Morganella morganii) | MIC (Enterobacter cloacae [8]) | MIC (Klebsiella pneumoniae) | MIC [10] | MIC (Salmonella typhimurium [11]) | MIC (Escherichia coli [12]) | MIC (Salmonella typhimurium [13]) | MIC (Citrobacter koseri) | MIC (Serratia marcescens [16]) | MIC (Serratia marcescens [17]) | MIC (Staphylococcus aureus [18]) | also measured |
| --- | --- | --- | --- | --- | --- | --- | --- | --- | --- | --- | --- | --- | --- | --- | --- | --- | --- | --- | --- | --- | --- |
| C[C@H](CO)[C@H]1CC[C@H]2[C@@H]3CC[C@H]4C[C@H](NCCCNCCCCNCCCN)CC[C@]4(C)[C@H]3CC[C@]12C.Cl.Cl.Cl.Cl | > 32 µg/mL | > 32 µg/mL | > 32 µg/mL | > 32 µg/mL | 16 µg/mL | 8 µg/mL | 4 µg/mL | 16 µg/mL | > 32 µg/mL | > 32 µg/mL | > 32 µg/mL | > 32 µg/mL | 8 µg/mL | > 32 µg/mL | > 32 µg/mL | > 32 µg/mL | > 32 µg/mL | > 32 µg/mL | > 32 µg/mL | 4 µg/mL | MIC (Moraxella catarrhalis [2]; read-out: MIC): < 32 µg/mL; MIC (Moraxella catarrhalis [3]; read-out: MIC): < 32 µg/mL; MIC (Bacillus cereus; read-out: MIC): < 32 µg/mL; MIC (Escherichia coli [4]; read-out: MIC): < 32 µg/mL; MIC (Escherichia coli [9]): > 32 µg/mL; MIC (Bacillus licheniformis; read-out: MIC): 32 µg/mL; MIC (Enterococcus faecalis; read-out: MIC): < 32 µg/mL; MIC (Staphylococcus aureus [14]; read-out: MIC): 16 µg/mL; MIC (Escherichia coli [15]; read-out: MIC): < 32 µg/mL; MIC (Proteus vulgaris): > 32 µg/mL; MIC (Staphylococcus aureus [19]): 16 µg/mL |
| C[C@H](CO)[C@H]1CC[C@H]2[C@@H]3CC[C@@H]4C[C@@H](NCCCNCCCCN)CC[C@]4(C)[C@H]3CC[C@]12C.Cl.Cl.Cl | > 32 µg/mL | > 32 µg/mL | > 32 µg/mL | > 32 µg/mL | 16 µg/mL | 8 µg/mL | 8 µg/mL | 8 µg/mL | > 32 µg/mL | > 32 µg/mL | > 32 µg/mL | > 32 µg/mL | 32 µg/mL | > 32 µg/mL | > 32 µg/mL | > 32 µg/mL | > 32 µg/mL | > 32 µg/mL | > 32 µg/mL | 8 µg/mL | MIC (Moraxella catarrhalis [2]): > 32 µg/mL; MIC (Moraxella catarrhalis [3]): > 32 µg/mL; MIC (Bacillus cereus; read-out: MIC): 32 µg/mL; MIC (Escherichia coli [4]): > 32 µg/mL; MIC (Escherichia coli [9]; read-out: MIC): < 32 µg/mL; MIC (Bacillus licheniformis; read-out: MIC): 32 µg/mL; MIC (Enterococcus faecalis; read-out: MIC): < 32 µg/mL; MIC (Staphylococcus aureus [14]): > 32 µg/mL; MIC (Escherichia coli [15]): > 32 µg/mL; MIC (Proteus vulgaris): > 32 µg/mL; MIC (Staphylococcus aureus [19]): 16 µg/mL |
| C[C@H](CO)[C@H]1CC[C@H]2[C@@H]3CC[C@H]4C[C@@H](NCCCNCCCCN)CC[C@]4(C)[C@H]3CC[C@]12C.Cl.Cl.Cl | > 32 µg/mL | > 32 µg/mL | > 32 µg/mL | > 32 µg/mL | 16 µg/mL | 8 µg/mL | 8 µg/mL | 16 µg/mL | > 32 µg/mL | > 32 µg/mL | > 32 µg/mL | > 32 µg/mL | 16 µg/mL | > 32 µg/mL | > 32 µg/mL | > 32 µg/mL | > 32 µg/mL | > 32 µg/mL | > 32 µg/mL | 8 µg/mL | MIC (Moraxella catarrhalis [2]; read-out: MIC): 32 µg/mL; MIC (Moraxella catarrhalis [3]; read-out: MIC): 32 µg/mL; MIC (Bacillus cereus): > 32 µg/mL; MIC (Escherichia coli [4]): > 32 µg/mL; MIC (Escherichia coli [9]; read-out: MIC): < 32 µg/mL; MIC (Bacillus licheniformis): > 32 µg/mL; MIC (Enterococcus faecalis): > 32 µg/mL; MIC (Staphylococcus aureus [14]; read-out: MIC): 32 µg/mL; MIC (Escherichia coli [15]; read-out: MIC): < 32 µg/mL; MIC (Proteus vulgaris): > 32 µg/mL; MIC (Staphylococcus aureus [19]): 16 µg/mL |
